Laboratory results as given in patent US20220288207A1, “PHOTO INDUCED CONTROL OF PROTEIN DESTRUCTION” (Beth Israel Deaconess Medical Center, Inc., priority 2019, published 2022).
Entries after “also recorded” stand apart in the source; their conditions may differ.

Columns and labels:
[1] = system: BRD2 and BRD3; experiment: In vivo ubiquitination assay of BRD2 and BRD3 by CRBN in HEK293T cells (Ni-NTA pull down); assay type: cell-based, Human
Procedure: (§1) Denatured in vivo ubiquitination assays were performed as described in H. Inuzuka et al., Cell 150 (2012): 179, hereby incorporated by reference in its entirety and specifically in relation to ubiquitination assays. Briefly, HEK293T cells were transfected with Flag-CRBN, His-ubiquitin and HA-IKZF1 or GFP-BRD2 or GFP-BRD3. 24 hours after transfection, pomalidomide, opto-pomalidomide, dBET1 or opto-dBET1 were added to the cell culture together with 10 μM MG132 for 12 hours and cells were harvested in denatured buffer A (6 M guanidine-HCl, pH 8.0, 0.1 M Na2HPO4/NaH2PO4, 10 mM imidazole). After sonication, the ubiquitinated proteins were purified by incubation with Ni-NTA matrices for 3 hours at room temperature. The pull-down products were washed sequentially twice in buffer A, twice in buffer ANTI mixture (buffer A: buffer TI=1:3) and once in buffer TI (25 mM Tris-HCl, pH 6.8, 20 mM imidazole). The poly-ubiquitinated proteins were separated by SDS-PAGE for immunoblot analysis.

[2] = system: C4-2 cells; experiment: CCK-8 cell viability assay, C4-2 cells; assay type: cell-based
Procedure: (§2) Human embryonic kidney 293T (HEK293T) cells and HEK293FT were maintained in Dulbecco's Modified Eagle's Medium (DMEM) containing 10% fetal bovine serum (FBS), 100 Units of penicillin and […] streptomycin. MM.1S, MT2, C4-2, NCI-H2228 and NCI-H3122 cells were cultured in RPMI1640 containing 10% fetal bovine serum (FBS), 100 Units of penicillin and 100 μg/ml streptomycin. 293FT^CRBN+/+, 293FT^CRBN+/+ , MM.1S^CRBN+/+ and MM.1S^CRBN−/− cells were provided Dr. William G. Kaelin (Dana-Farber Cancer Institute). For UVA irradiation, cells were pretreated with opto-PROTACs for 2-4 hours, and then subjected to UVA irradiation for indicated durations.
(§3) Cell in 96-well plates were incubated with 10 ul/well of CCK-8 solution and incubated for 2 hours, followed by the measurement of optical density using a microplate reader with a 450 nm filter (O.D. 450).

[3] = system: HEK293FT cells; experiment: CCK-8 cell viability assay, HEK293FT cells; assay type: cell-based, Human
Procedure: as §2, §3

[4] = system: BRD3/4; experiment: BRD3/4 degradation, immunoblot of 293FT cells; assay type: cell-based, Human
Procedure: as §2
(§4) Cells were lysed in EBC lysis buffer (50 mM Tris pH 7.5, 120 mM NaCl, 0.5% NP-40), supplemented with protease inhibitors (cOmplete Mini, Roche) and phosphatase inhibitors (phosphatase inhibitor cocktail set I and II, Calbiochem). The protein concentrations of the lysates were measured using the Bio-Rad protein assay reagent on a Beckman Coulter DU-800 spectrophotometer. The lysates were then resolved by sodium dodecylsulfate-polyacrylamide gel ectrophoresis (SDS-PAGE) and immunoblotted with indicated antibodies. For immunoprecipitation, 1 mg lysates were incubated with the appropriate sepharose beads for 4 h at 4° C. Immuno-complexes were washed four times with NETN lysis buffer (20 mM Tris, pH 8.0, 100 mM NaCl, 1 mM EDTA and 0.5% NP-40) before being resolved by SDS-PAGE and immunoblotted with indicated antibodies.

[5] = Uncaging (photolysis) by UVA irradiation in vitro, UV-VIS absorption / UPLC-MS analysis; assay type: physicochemical; settings: 1 mM, UVA 365 nm, time course
Procedure: HPLC spectra were acquired using an Agilent 1200 Series system with DAD detector for all the intermediates and Opto-PROTACs below. Chromatography was performed on a 2.1×150 mm Zorbax 300SB-C18 5 μm column with water containing 0.1% formic acid as solvent A and acetonitrile containing 0.1% formic acid as solvent B at a flow rate of 0.4 ml/min. The gradient program was as follows: 1% B (0-1 min), 1-99% B (1-4 min), and 99% B (4-8 min). High-resolution mass spectra (FIRMS) data were acquired in positive ion mode using an Agilent G1969A API-TOF with an electrospray ionization (ESI) source. Nuclear Magnetic Resonance (NMR) spectra were acquired on a Bruker DRX-600 spectrometer with 600 MHz for proton (^1H NMR) and 151 MHz for carbon (^13C NMR); chemical shifts are reported in (δ). Preparative HPLC was performed on Agilent Prep 1200 series with UV detector set to 254 nm. Samples were injected onto a Phenomenex Luna 250×30 mm, 5 μm, C18 column at room temperature. The flow rate was 40 ml/min. A linear gradient was used with 10% of acetonitrile (A) in H2O (with 0.1% TFA) (B) to 100% of acetonitrile (A). HPLC was used to establish the purity of target compounds. All final compounds had >95% purity using the HPLC methods described above.
(§5) UV-Vis spectrometry was performed on a NanoDrop-2000 UV-Visible Spectrophotometer. Pomalidomide, opto-pomalidomide, dBET1, opto-dBET1, dALK and opto-dALK were dissolved in DMSO and diluted to indicated concentration, followed by UVA irradiation for indicated duration of time. Then the samples were subjected to UV-Vis spectrometry analysis. Pomalidomide and opto-pomalidomide mixture solutions were made with the indicated ratio. Absorption values at 364 nm were measured to draw standard curve. dBET1 and opto-dBET1 mixture solution were made with the indicated ratios. Absorption values at 340 nm were measured to draw standard curve. dALK and opto-dALK mixture solution were made with indicated ratio. Absorption values at 370 nm were measured to draw standard curve.

[6] = system: NCI-H3122 cells; experiment: CCK-8 cell viability assay, NCI-H3122 cells; assay type: cell-based
Procedure: as §2, §3

[7] = system: NCI-H2228 cells; experiment: CCK-8 cell viability assay, NCI-H2228 cells; assay type: cell-based
Procedure: as §2, §3

[8] = UV-VIS absorption spectrum; assay type: physicochemical; settings: in DMSO
Procedure: as §5

[9] = target: T1, CRBN and IKZF1 (Homo sapiens, UniProt Q13422+Q96SW2); experiment: CRBN-IKZF1 interaction, Flag-IP and immunoblot in HEK293T cells; assay type: cell-based; settings: without UVA irradiation, 10 μM MG132 12 hours
T1 construct: expressed in transfected cells; host or cells: HEK293T
T1 sequence (Q96SW2 whole entry): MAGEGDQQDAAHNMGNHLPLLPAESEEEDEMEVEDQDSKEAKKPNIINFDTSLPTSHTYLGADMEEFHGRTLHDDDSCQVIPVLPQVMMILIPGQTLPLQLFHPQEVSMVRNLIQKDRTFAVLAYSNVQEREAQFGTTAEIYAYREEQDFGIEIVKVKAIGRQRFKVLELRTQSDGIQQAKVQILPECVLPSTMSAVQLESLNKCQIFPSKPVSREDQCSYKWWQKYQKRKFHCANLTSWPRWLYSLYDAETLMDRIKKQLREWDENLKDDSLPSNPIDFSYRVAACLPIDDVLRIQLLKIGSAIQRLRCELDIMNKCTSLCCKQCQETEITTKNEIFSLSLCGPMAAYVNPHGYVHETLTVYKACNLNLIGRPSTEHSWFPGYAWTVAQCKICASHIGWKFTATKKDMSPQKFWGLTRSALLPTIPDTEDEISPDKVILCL
T1 sequence (Q13422 whole entry): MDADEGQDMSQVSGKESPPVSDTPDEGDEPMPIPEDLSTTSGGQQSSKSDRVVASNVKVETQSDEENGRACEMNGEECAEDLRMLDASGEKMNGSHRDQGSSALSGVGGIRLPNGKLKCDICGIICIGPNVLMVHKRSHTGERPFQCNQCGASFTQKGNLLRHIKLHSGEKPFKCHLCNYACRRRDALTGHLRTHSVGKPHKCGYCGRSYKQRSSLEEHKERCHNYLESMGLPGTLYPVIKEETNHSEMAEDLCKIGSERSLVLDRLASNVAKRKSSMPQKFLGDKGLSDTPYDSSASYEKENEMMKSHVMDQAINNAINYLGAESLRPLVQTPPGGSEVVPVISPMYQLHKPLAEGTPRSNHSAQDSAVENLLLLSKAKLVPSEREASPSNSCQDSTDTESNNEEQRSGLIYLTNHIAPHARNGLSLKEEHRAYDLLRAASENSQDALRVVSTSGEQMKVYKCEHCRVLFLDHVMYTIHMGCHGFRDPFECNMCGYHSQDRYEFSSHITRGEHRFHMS
T1 sequence (Q16531 whole entry partner): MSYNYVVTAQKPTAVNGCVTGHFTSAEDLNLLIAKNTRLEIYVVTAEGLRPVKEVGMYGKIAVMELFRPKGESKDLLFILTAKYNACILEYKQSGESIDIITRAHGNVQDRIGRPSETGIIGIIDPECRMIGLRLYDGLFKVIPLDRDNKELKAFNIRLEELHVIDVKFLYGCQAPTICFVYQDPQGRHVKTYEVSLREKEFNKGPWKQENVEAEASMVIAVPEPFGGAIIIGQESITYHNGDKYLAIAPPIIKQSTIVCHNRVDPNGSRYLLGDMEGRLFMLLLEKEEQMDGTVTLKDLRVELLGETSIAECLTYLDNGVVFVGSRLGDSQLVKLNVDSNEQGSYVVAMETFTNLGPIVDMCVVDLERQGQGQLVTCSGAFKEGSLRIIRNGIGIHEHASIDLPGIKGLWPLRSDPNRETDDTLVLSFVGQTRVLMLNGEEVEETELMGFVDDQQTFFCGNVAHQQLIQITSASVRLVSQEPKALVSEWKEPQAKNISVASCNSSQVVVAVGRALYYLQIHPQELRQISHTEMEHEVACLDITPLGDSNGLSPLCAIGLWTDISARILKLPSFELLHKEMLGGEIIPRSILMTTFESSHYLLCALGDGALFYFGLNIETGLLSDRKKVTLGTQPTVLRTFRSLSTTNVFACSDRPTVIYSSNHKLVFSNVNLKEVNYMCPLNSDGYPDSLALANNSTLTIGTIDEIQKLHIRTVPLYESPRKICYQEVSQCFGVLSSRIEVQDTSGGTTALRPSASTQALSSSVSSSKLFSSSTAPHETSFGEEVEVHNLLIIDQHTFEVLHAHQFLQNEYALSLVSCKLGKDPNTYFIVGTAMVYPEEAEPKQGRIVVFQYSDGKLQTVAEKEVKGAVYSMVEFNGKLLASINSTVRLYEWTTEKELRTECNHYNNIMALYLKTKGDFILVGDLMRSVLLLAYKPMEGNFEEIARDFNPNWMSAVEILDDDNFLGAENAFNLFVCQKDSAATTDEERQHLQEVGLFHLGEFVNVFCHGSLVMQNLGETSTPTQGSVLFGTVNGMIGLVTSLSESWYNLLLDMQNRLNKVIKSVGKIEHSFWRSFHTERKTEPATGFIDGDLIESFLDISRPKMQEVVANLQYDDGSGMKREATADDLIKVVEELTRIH
Procedure: (§6) MM.1S, MT2, C4-2, NCI-H2228 and NCI-H3122 cells were cultured in RPMI1640 containing 10% fetal bovine serum (FBS), 100 Units of penicillin and 100 μg/ml streptomycin. […] For UVA irradiation, cells were pretreated with opto-PROTACs for 2-4 hours, and then subjected to UVA irradiation for indicated durations.
as §4

[10] = system: IKZF1/3; experiment: IKZF1/3 degradation, immunoblot of MM1S cells; assay type: cell-based; settings: MM1S-CRBN+/+ vs. MM1S-CRBN−/− cells, 12 hours, without UVA irradiation; opto-drug up to 10-fold excess
Procedure: as §6, §4

[11] = target: IKZF1 (Homo sapiens, UniProt Q13422+Q96SW2); experiment: In vivo ubiquitination assay of IKZF1 by CRBN in HEK293T cells (Ni-NTA pull down); assay type: cell-based; parameters: expressed in transfected cells; host or cells: HEK293T; settings: without UVA irradiation
Chain of IKZF1 (Q13422 whole entry): as the sequence (Q13422 whole entry) above
Chain of IKZF1 (Q96SW2 whole entry): as the sequence (Q96SW2 whole entry) above
Chain of IKZF1 (Q16531 whole entry partner): as the sequence (Q16531 whole entry partner) above
Procedure: as §1, with “Briefly,” for “Denatured in vivo ubiquitination assays were performed as described in H. Inuzuka et al., Cell 150 (2012): 179, hereby incorporated by reference in its entirety and specifically in relation to ubiquitination assays. Briefly,”

[12] = system: MM1S cells; experiment: CCK-8 cell viability assay, MM1S cells; assay type: cell-based; settings: MM1S-CRBN+/+ and MM1S-CRBN−/− cells, 72 hours, without UVA irradiation
Procedure: as §2, §3

[13] = HEK293FT (293FT-CRBN+/+ and CRBN−/−) cells, without UVA irradiation
[14] = 293FT-CRBN+/+ vs. 293FT-CRBN−/− cells, 12 hours, without UVA irradiation
[15] = 72 hours, without UVA irradiation
[16] = UVA irradiation (365 nm) 15 minutes

SMILES: Cc1sc2c(c1C)C(c1ccc(Cl)cc1)=N[C@@H](CC(=O)NCCCCNC(=O)COc1cccc3c1C(=O)N(C1CCC(=O)NC1=O)C3=O)c1nnc(C)n1-2 (some centres unmarked) [dBET1, reference compound]
- ubiquitination of BRD2 and BRD3 by CRBN ([1]; without UVA irradiation): function as a molecular linker between a protein targeting moiety that recruits bromodomain family members (BRD2/3) (JQ1 derived) and CRBN-mediated ubiquitination
- cell proliferation (CCK-8) ([2]; without UVA irradiation): inhibited cell proliferation in a dose-dependent manner
- cell proliferation (CCK-8) [3, 13]: inhibited cell proliferation in a dose-dependent manner; also recorded: inhibits cell proliferation in 293FT-CRBN^+/+ but not 293FT-CRBN^−/− cells
- degradation of BRD3/4 [4, 14]: degraded BRD 3/4 in a CRBN-dependent manner

SMILES: COc1cc(COC(=O)N2C(=O)CCC(N3C(=O)c4cccc(NCCNC(=O)CN5CCC(c6cc(OC(C)C)c(Nc7ncc(Cl)c(Nc8ccccc8S(=O)(=O)C(C)C)n7)cc6C)CC5)c4C3=O)C2=O)c([N+](=O)[O-])cc1OC (centres unmarked) [opto-dALK]
- uncaging (photolysis) by UVA irradiation in vitro [5]: efficiently uncaged by UVA irradiation in vitro
- cell proliferation (CCK-8) [6, 15]: inefficient in inhibiting the proliferation of H2228 (C) or NCI-3122 (D)
- cell proliferation (CCK-8) [6, 16]: required prior uncaging by UVA irradiation; also recorded: inhibits H2228 (E) or NCI-3122 (F) cell proliferation in a dose-dependent manner
- cell proliferation (CCK-8) [7, 15]: inefficient in inhibiting the proliferation of H2228 (C) or NCI-3122 (D)
- cell proliferation (CCK-8) [7, 16]: required prior uncaging by UVA irradiation; also recorded: inhibits H2228 (E) or NCI-3122 (F) cell proliferation in a dose-dependent manner

SMILES: COc1cc(COC(=O)N2C(=O)CCC(N3C(=O)c4cccc(OCC(=O)NCCCCNC(=O)C[C@@H]5N=C(c6ccc(Cl)cc6)c6c(sc(C)c6C)-n6c(C)nnc65)c4C3=O)C2=O)c([N+](=O)[O-])cc1OC (some centres unmarked) [opto-dBET1]
- ubiquitination of BRD2 and BRD3 by CRBN ([1]; UVA irradiation (365 nm) 15 min): regained its ability to promote ubiquitination of BRDs in cells
- ubiquitination of BRD2 and BRD3 by CRBN ([1]; without UVA irradiation): incapable of guiding the ubiquitination of BRD2 and BRD3
- uncaging (photolysis) by UVA irradiation in vitro [5]: efficiently uncaged by UVA irradiation in vitro
- cell proliferation (CCK-8) [2, 16]: could be activated by UVA irradiation to suppress cell proliferation; also recorded: inhibits HEK293FT (J) and C4-2 (K) cell proliferation in a dose-dependent manner
- cell proliferation (CCK-8) ([2]; without UVA irradiation): relatively less toxic
- cell proliferation (CCK-8) [3, 13]: relatively less toxic; also recorded: did not inhibit cell proliferation in 293FT-CRBN^+/+ and 293FT-CRBN^−/− cells
- cell proliferation (CCK-8) ([3]; HEK293FT cells, UVA irradiation (365 nm) 15 minutes): could be activated by UVA irradiation to suppress cell proliferation; also recorded: inhibits HEK293FT (J) and C4-2 (K) cell proliferation in a dose-dependent manner
- degradation of BRD3/4 [4, 14]: largely inert and incapable of degrading BRD3/4
- degradation of BRD3/4 ([4]; HEK293FT cells, UVA irradiation (365 nm) 5 or 15 minutes): leading to the degradation of BRD3/4

SMILES: Nc1cccc2c1C(=O)N(C1CCC(=O)NC1=O)C2=O (centres unmarked) [pomalidomide, reference compound]
- maximum in absorption of UV-VIS absorption spectrum [8]: 390 nm
- interaction between CRBN and IKZF1 [9]: bound both CRBN and IKZF1/3
- degradation of IKZF1/3 [10]: induced IKZF1/3 degradation in a CRBN-dependent manner
- ubiquitination of IKZF1 by CRBN [11]: subsequently transfer the ubiquitin chain onto the target proteins, IKZFs
- cell proliferation (CCK-8) [12]: reduces MM1S cell proliferation in a CRBN-dependent manner
